Key:
[1] = Solubility of Form M in various media; format: physicochemical; conditions: water, hydrochloric acid, acetate Buffer, and phosphate Buffer at different pH
[2] = Polymorph stability under temperature/humidity storage (PXRD, FIG. 15 and 16); format: physicochemical; conditions: 25° C. to 40° C. temperature, 5% to 75% humidity (RH); FIG. 15 25° C./60% RH/2M, FIG. 16 40° C./75% RH/2M
Description: The term “stable” with respect polymorph or to a drug dosage form, refers to the chemical and physical integrity of the polymorph or dosage unit and, when appropriate, the ability of the dosage unit to maintain protection against microbiological contamination.
The Form M of apremilast is stable at different set of conditions such as 25° C. to 40° C. temperature, 5% to 75% humidity (RH) for durations as depicted in FIG. 15 and FIG. 16.
Using a PANalytical X'Pert powder diffraction meter, the x-ray powder diffraction pattern was measured at room temperature using a Cu Ka filled tube (45 kV 40 mA) as the x-ray source. Data collection was done in 2theta continuous scan mode in the range of 3.5° to 40°.

CCOc1cc(C(CS(C)(=O)=O)N2C(=O)c3cccc(NC(C)=O)c3C2=O)ccc1OC (centres unmarked) [Form M]
solubility in various medium [1]: good solubility | stability of polymorph [2]: stable
